Laboratory results published in patent US8053409B2, “Agent for prophylaxis of reflex sympathetic dystrophy after cerebral apoplexy” (Asahi Kasei Pharma Corporation, priority 2006, dated 2011).

Columns and labels:
[1] = tested on: patients with hemiplegia attributed to cerebrovascular disease (stroke) who developed RSD (shoulder-hand syndrome); experiment: Test of treatment of post-stroke RSD; type: in vivo, human; conditions: therapeutic administration group, at completion of administration
Protocol: EL was administered after the onset of RSD (shoulder-hand syndrome) in the same use and dose as in Example 1 to 11 patients with hemiplegia attributed to cerebrovascular disease (stroke) at Brunnstrom stage III or lower in either the upper limb or a finger on admission, who developed RSD (shoulder-hand syndrome). These patients were classified into a therapeutic administration group. On the other hand, the EL administration group of Example 1 was compared as a control (preventive administration group) with the therapeutic administration group.

[2] = tested on: patients with hemiplegia attributed to cerebrovascular disease (stroke); experiment: Test of prevention of onset of post-stroke RSD; type: in vivo, human
Source text: Test subjects were 33 patients with hemiplegia attributed to cerebrovascular disease (stroke) at Brunnstrom stage III or lower in either the upper limb or a finger on admission. Patients already developing RSD (shoulder-hand syndrome) on admission and patients with pain in the shoulder joint or swollen paralyzed limbs were excluded from the test. […] On the other hand, 21 test subjects were classified into a rehabilitation alone group (control group) and compared with the EL administration group. Physical therapy and therapeutic exercise, occupational therapy, and the management of the paralyzed limbs were performed thoroughly in all the cases. […] EL administration was initiated 11 to 59 days after an attack of stroke (25.8 days on average) and continued until 5 months after the attack of stroke. The same observation period was applied to the control group. The test subjects were diagnosed as developing RSD (shoulder-hand syndrome) if they had diffuse pain not localized to the shoulder joint, edema involving skin color changes, skin temperature abnormalities, and range of motion limitations, and the practice of their rehabilitation was restricted. These criteria agreed to Veldman's diagnostic criteria or diagnostic criteria, for CRPS-type 1 provided by the International Association for the Study of Pain.
Activities of daily living (ADL) were evaluated on the basis of the Barthel Index (BI) and the range of motion (ROM) of shoulder joint. The movable range of shoulder joint (also referred to as “shoulder ROM”) was regarded as restricted (Shoulder-ROM-restrictions were present.) if either abduction or flexion was restricted in measurement. The test subjects were also examined for sensory impairment, aphasia, and unilateral spatial neglect on admission.
Statistical analysis was conducted with unpaired t-test, Fisher's exact test, or Wilcoxon test, and 5% or lower significance level was regarded as being significant.

[3] = tested on: RSD triggered and developed by a trauma or surgical invasion; conditions: subjects having no anamnesis of RSD, after a trauma or surgical invasion; cited from earlier work
[4] = EL preventive administration group (12 subjects), 20 units intramuscularly once a week, continued until 5 months after stroke
[5] = preventive administration group, at completion of administration

Compound	Barthel index, Average ± SE [1]	Barthel index, Median [1]	No RSD, the number of persons [1]	Incidence of RSD converted to all patients with hemiplegia attributed to stroke in the facility ([2]; EL administration group, control group approximately 8.7%)	The number of test subjects developing post-stroke RSD: Developed [2, 4]	The number of test subjects developing post-stroke RSD: Not developed [2, 4]	Cases that developed RSD (incidence) ([2]; EL preventive administration group, 1 of the 12 cases, control group 52.4%) [%]	Incidence of RSD when EL administration was initiated within 48 days after stroke ([2]; cases with administration initiated within 48 days after stroke) [%]	Barthel index, Average ± SE [2, 5]	Barthel index, Median [2, 5]	No RSD, the number of persons [2, 5]	Incidence of RSD until discharge from hospital compared with the unadministered patient group ([2]; repetitive administration to hemiplegia patients without RSD on admission)	Preventive effect on the initial onset of RSD [3]
1-butyric acid-7-(L-2-aminobutyric acid)-26-L-aspartic acid-27-L-valine-29-L-alanine-calcitonin [elcatonin]	31.8 ± 7.8	25	0	approximately 1.3%	1	11	8.3	0	60.8 ± 9.3	72.5	11	suppressed significantly and remarkably	–
O=C1O[C@H]([C@@H](O)CO)C(O)=C1O [vitamin C]	–	–	–	–	–	–	–	–	–	–	–	–	preventive effect
